Earlier results on two compounds are cited in paper PMC4741275 (Analytical Chemistry, 2016).

The test system of the data set is lysosomes.

SMILES strings stand for the structures.

Regarding `Cc1ccc(NC(=O)c2ccc(CN3CCN(C)CC3)cc2)cc1Nc1nccc(-c2cccnc2)n1` [imatinib], the enrichment in lysosomes result is on record as “over 1000 fold”. As for `Cc1cn(-c2cc(NC(=O)c3ccc(C)c(Nc4nccc(-c5cccnc5)n4)c3)cc(C(F)(F)F)c2)cn1` [nilotinib], the enrichment in lysosomes result was “over 1000 fold”.
